# Experimental data as given in ChEMBL document CHEMBL5230098, “The ups and downs of Poly(ADP-ribose) Polymerase-1 inhibitors in cancer therapy-Current progress and future direction” (Eur J Med Chem, 2020).
# Legend:
# [1] = molecular target: Poly [ADP-ribose] polymerase 1 (Homo sapiens, UniProt P09874); experiment: Inhibition of PARP1 (unknown origin)
# [2] = Aqueous solubility of compound; assay type: physicochemical
# [3] = Oral bioavailability in Sprague-Dawley rat at 4 mg/kg administered as single dose measured for 24 hrs by HPLC/tandem mass spectrometry; assay type: ADME, organism-based; conditions: in vivo
# Sequence of Poly [ADP-ribose] polymerase 1 (P09874 whole entry): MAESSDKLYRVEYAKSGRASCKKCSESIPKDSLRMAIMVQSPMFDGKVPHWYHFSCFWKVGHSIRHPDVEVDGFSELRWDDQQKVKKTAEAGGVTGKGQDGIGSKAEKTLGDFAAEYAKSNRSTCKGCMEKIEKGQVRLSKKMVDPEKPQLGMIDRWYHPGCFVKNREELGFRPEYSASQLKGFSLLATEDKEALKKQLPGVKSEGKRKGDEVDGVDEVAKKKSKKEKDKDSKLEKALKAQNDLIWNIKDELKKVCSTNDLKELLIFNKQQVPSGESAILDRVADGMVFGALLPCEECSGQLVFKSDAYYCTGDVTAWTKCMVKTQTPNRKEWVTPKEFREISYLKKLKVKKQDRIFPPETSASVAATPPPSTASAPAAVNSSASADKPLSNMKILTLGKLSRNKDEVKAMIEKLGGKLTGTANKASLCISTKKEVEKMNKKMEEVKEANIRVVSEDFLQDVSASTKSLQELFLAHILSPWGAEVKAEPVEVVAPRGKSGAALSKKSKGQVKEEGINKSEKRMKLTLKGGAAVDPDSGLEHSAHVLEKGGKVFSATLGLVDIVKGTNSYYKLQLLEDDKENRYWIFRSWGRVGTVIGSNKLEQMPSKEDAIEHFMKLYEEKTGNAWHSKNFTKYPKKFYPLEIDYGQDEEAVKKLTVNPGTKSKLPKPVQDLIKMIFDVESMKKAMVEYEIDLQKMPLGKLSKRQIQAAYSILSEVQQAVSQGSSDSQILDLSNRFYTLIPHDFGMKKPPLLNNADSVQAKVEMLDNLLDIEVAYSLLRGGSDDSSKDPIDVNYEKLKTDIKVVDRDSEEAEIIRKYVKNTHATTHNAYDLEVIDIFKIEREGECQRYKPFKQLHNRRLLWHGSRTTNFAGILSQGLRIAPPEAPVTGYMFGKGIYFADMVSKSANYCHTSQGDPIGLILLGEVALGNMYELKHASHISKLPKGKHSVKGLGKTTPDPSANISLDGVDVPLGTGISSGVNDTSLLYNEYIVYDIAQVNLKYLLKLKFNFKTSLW
SMILES,IC50 [1],other results
O=C1NCCc2c(OCCCCN3CCCCC3)cccc21,150 nM,–
O=C1CCC(=O)N1c1cc(Cc2n[nH]c(=O)c3ccccc23)ccc1F,–,Ki [1]: 12 nM
CNCc1ccc(-c2cc3cc(F)cc(C(N)=O)c3o2)cc1.Cl,–,solubility [2]: > 35 mg/mL
O=C(c1cc(Cc2n[nH]c(=O)c3ccccc23)ccc1F)N1CCn2nc(C(F)(F)F)nc2C1 [FLUZOPARIB],–,bioavailability [3]: 35.8%

# Continued, in another order:
IC50 [1],SMILES,other results
30000 nM,COc1cccc(C(N)=O)c1,–
150 nM,Cc1cccc2c1CCNC2=O,–
